Experimental data taken from patent US11147883B2, “Targeted delivery of drugs, therapeutic nucleic acids and functional nucleic acids to mammalian cells via intact killed bacterial cells” (EnGeneIC Molecular Delivery Pty Ltd, priority 2006, dated 2021).

Test system: human breast cancer cells MDA-MB-468 xenograft
Assay: Human breast cancer MDA-MB-468 xenograft in nude mice, i.v. treatment, tumor volume
Format: in vivo, Balb/c nu/nu mice
Settings: i.v. doses on days 21, 28 and 34, 1×10^8 bacteria/dose or free Doxorubicin 7 mg/kg
Description: An anti-EGFR monoclonal antibody was selected because the xenografted cells were human breast cancer cells MDA-MB-468 that are known to overexpress the EGF receptor on the cell surface.
Human breast adenocarcinoma cells (MDA-MB-468, ATCC; human mammary epithelial cells; non-phagocytic) were grown in tissue culture to full confluency in T-75 flasks in RPMI 1640 medium supplemented with 5% Bovine Calf Serum (GIBCO-BRL Life Technologies, Invitrogen Corporation, Carlsbad, Calif., USA) and glutamine (Invitrogen) in a humidified atmosphere of 95% air and 5% CO2 at 37° C. 1×10^6 cells in 50 uL serum-free media together with 50 uL growth factor reduced matrigel (BD Biosciences, Franklin Lakes, N.J., USA) were injected subcutaneously between the shoulder blades of each mouse using a 23-gauge needle. The tumors were measured twice a week using an electronic digital caliper (Mitutoyo, Japan, precision to 0.001) and mean tumor volume was calculated using the formula, length (mm)×width^2 (mm)×0.5=volume (mm^3). 16 days post-implantation, the tumors reached volumes between 40 mm^3 and 70 mm^3, and mice were randomized to four different groups of five per group.
The experiment was designed as follows. Group 1 (control) received an i.v. dose of 100 μl of sterile physiological saline. Group 2 (control) received an i.v. dose of free Doxorubicin (7 mg/kg of mouse body weight). […]

SMILES: COc1cccc2c1C(=O)c1c(O)c3c(c(O)c1C2=O)C[C@@](O)(C(=O)CO)C[C@@H]3O[C@H]1C[C@H](N)[C@H](O)[C@H](C)O1 [free doxorubicin, Doxorubicin]
- anti-tumor effect (tumor volume, FIG. 1): no anti-tumor effects
